Measurements as given in patent publication US20260265798A1, “Enzymes and Uses in Biocatalytic Halogenation of N-Heteroaryls Thereof” (Agency for Science, Technology and Research, priority 2022, published 2026).
Marks after values point to notes of the source that are not given here.

What was measured:
[1] = target: T1, NT-11 PrnC (Pseudomonas fluorescens, UniProt P95482); experiment: NT-11 PrnC-catalyzed halogenation, analytical scale biotransformation (in-vitro regioselective chlorination, substrate scope); assay type: biochemical; details: in-vitro chlorination by PrnC under optimized conditions; substrate 0.5 mM, MgCl2 10 mM, overnight 30° C.; HPLC
T1 construct: made in house; host or cells: T7 Express E. coli (NEB), pET-28a(+)
T1 sequence (P95482 with tags, fused parts or gaps): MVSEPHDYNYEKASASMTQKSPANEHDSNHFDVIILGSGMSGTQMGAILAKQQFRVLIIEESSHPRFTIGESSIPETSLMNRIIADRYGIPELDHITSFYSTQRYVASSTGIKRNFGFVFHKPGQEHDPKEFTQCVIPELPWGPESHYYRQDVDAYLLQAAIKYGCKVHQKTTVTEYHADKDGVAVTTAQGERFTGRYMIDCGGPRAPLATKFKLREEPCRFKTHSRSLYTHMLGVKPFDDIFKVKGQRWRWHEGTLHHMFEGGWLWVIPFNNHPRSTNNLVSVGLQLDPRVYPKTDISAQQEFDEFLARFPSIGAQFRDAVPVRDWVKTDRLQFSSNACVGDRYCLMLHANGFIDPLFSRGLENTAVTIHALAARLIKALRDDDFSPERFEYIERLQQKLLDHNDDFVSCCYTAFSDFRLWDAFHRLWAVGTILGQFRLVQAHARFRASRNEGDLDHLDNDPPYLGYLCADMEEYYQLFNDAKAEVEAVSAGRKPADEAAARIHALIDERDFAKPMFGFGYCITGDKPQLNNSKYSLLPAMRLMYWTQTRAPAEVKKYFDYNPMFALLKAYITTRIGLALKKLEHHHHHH
Procedure: NT-11 PrnC-Catalyzed halogenation. In a solution containing the pyrrolic derivative starting material (0.5 mM), MgCl2/MgBr2 (10 mM), glucose (5.0 mM), FAD ([…]), NT-11 PrnC (12.5 μM), Fre ([…]) and Gdhi (2.5 μM) in 10 mM potassium phosphate buffer, NADH (2.5 mM) was added to a total volume of 200 μL. After an overnight incubation of 30° C. and orbital shaking at 350 rpm, reactions were quenched with an equivalent volume of MeOH, pelleted by centrifugation (15000 rpm for 10 min) and the supernatant analyzed by HPLC-MS using the analytical HPLC method.
Analytical HPLC Method. 10 μL of the supernatant injected onto SecurityGuard™ column (KJ0-4282) with a (4.0 mm×3.0 mm) guard cartridge before separation using a Phenomenex Gemini® C18 analytical column (5 μm packing, 150 mm×4.6 mm). Gradient starting conditions of 5% MeCN/H2O (+0.1% Formic acid) were held for 1 min before development into 50% MeCN/H2O over 3 min, followed by development into 95% MeCN/H2O over 3 min. 95% MeCN/H2O was held for 1 min before equilibration back to starting conditions over 1 min. Starting conditions was held for 1 min followed by another 2 min post-run. Flow rates were kept constant at 1 mL/min. Column temperature was kept constant at 30° C. UV absorbance was detected at 220 nm, 254 nm and 210 nm throughout the run.
A substrate scope of the enzyme by the application of the Prnc enzyme on a list of structural diverse pyrrolic substrates is determined. An optimized co-factors regeneration protocol was used to regulate the generation of the activated halogen which is captured by the Prnc enzyme into the active site for the bioconversion. Reaction is conducted at ambient temperature of 30° C., in an aqueous non-toxic buffer solution with an environmentally friendly chloride source.

[2] = target: T2, PrnC (Pseudomonas fluorescens, UniProt P95482); experiment: Optimization study of PrnC biocatalyst enzymatic assay conditions on the native substrate 1; assay type: biochemical
T2 construct: made in house; host or cells: T7 Express E. coli (NEB), pET-28a(+)
T2 sequence (P95482 with tags, fused parts or gaps): T1 sequence (P95482 with tags, fused parts or gaps)
Procedure: The conditions in the table above would be referred to as the standard conditions of the present invention; i.e. flavin-dependent halogenase (4 mol %), flavin adenine dinucleotide (FAD) (0.2 mol %), E. coli flavin reductase (Fre) (0.5 mol %), nicotinamide adenine dinucleotide hydrogen (NADH) (5.0 equiv), glucose 1-dehydrogenase (GdHi) (0.5 mol %), monosaccharide (10.0 equiv), halogen (20.0 equiv), buffer (10 mM, pH 7.4).
With the purified biocatalyst PrnC enzyme in hand, a preliminary optimization study of the enzymatic assay conditions was performed on the native substrate monodechloroaminopyrrolnitrin (1). The enzyme assays were carried out for 18 h with orbital shaking at 300 rpm and a temperature of 30° C. In addition to the substrate and PrnC, the reaction mixture contained FAD (0.1 equivalents relative to PrnC), NADH and E. coli flavin reductase (Fre), needed to generate FADH2 for the halogenation reaction. In initial assays, even using a super stoichiometric amount of NADH (5.0 equiv) (entry 1) only yielded 18% conversion to the desired product.

| Structure (SMILES) | conversion yield [1] | other results |
| --- | --- | --- |
| Clc1c[nH]cc1-c1ccccc1 [compound 8, 3-chloro-4-phenyl-1H-pyrrole] | 77% | – |
| Clc1c[nH]cc1-c1cccnc1 [compound 9, 3-(4-chloro-1H-pyrrol-3-yl)pyridine] | 73% | – |
| Nc1c(Cl)cccc1-c1[nH]ncc1Cl [compound 12, 2-chloro-6-(4-chloro-1H-pyrazol-5-yl)aniline] | 14% | – |
| Cc1ccccc1-c1c[nH]cc1Cl [compound 5, 3-chloro-4-(o-tolyl)-1H-pyrrole] | 22% | – |
| Nc1c(Cl)cccc1-c1c[nH]cc1Cl [compound 2, 2-chloro-6-(4-chloro-1H-pyrrol-3-yl)aniline] | 55% | conversion of 2 (%) ([2]; entry 1: 2 mol% FAD (10x), no GdHi & glucose, 18 h, 30° C.): 18%; conversion of 2 (%) ([2]; entry 2: 2 mol% FAD (10x), GdHi regen): 16%; conversion of 2 (%) ([2]; entry 4: 1 mol% of Fre (2x)): 72%; conversion of 2 (%) ([2]; entry 5: 0.05 Equiv NADH (Less 100x)): 32%; conversion of 2 (%) ([2]; entry 6: 0.05 Equiv NADH (Less 100x) + 8 mol% PrnC (2x)): 53%; conversion of 2 (%) ([2]; entry 7: 0.05 Equiv NADH (Less 100x) in Tris HCl buffer): 49%; conversion of 2 (%) ([2]; standard conditions: PrnC 4 mol%, GdHi 0.5 mol%, FAD 0.2 mol%, Fre 0.5 mol%, NADH 5.0 equiv, glucose 10.0 equiv, MgCl2 20.0 equiv, phosphate buffer 10 mM pH 7.4): 91^b % |
| CC(=O)Nc1ccccc1-c1c[nH]cc1Cl [compound 3, N-(2-(4-chloro-1H-pyrrol-3-yl)phenyl)acetamide] | 18% | – |
| Oc1ccccc1-c1c[nH]cc1Cl [compound 7, 2-(4-chloro-1H-pyrrol-3-yl)phenol] | 21% | – |
| Nc1ccccc1-c1cc(Cl)c[nH]1 [compound 11, 2-(4-chloro-1H-pyrrol-2-yl)aniline] | 68% | – |
| COc1ccccc1-c1c[nH]cc1Cl [compound 6, 3-chloro-4-(2-methoxyphenyl)-1H-pyrrole] | 41% | – |
| Clc1c[nH]cc1-c1cnc2ccccc2c1 [compound 14, 3-(4-chloro-1H-pyrrol-3-yl) quinoline] | 63% | – |
